Structures can show the parent of a compound that is named as a salt.
How the values were obtained:
[1] = biological target: T1, human organic anion transporter 4 (hOAT4) (Homo sapiens, UniProt Q9NSA0); test: inhibition of [3H]-estrone sulfate uptake in stable hOAT4-expressing COS-7 cells, Dixon plot (IC50 […]); trans-inhibition; assay type: cell-based
T1 construct: gene SLC22A11
T1 sequence (Q9NSA0 1-550): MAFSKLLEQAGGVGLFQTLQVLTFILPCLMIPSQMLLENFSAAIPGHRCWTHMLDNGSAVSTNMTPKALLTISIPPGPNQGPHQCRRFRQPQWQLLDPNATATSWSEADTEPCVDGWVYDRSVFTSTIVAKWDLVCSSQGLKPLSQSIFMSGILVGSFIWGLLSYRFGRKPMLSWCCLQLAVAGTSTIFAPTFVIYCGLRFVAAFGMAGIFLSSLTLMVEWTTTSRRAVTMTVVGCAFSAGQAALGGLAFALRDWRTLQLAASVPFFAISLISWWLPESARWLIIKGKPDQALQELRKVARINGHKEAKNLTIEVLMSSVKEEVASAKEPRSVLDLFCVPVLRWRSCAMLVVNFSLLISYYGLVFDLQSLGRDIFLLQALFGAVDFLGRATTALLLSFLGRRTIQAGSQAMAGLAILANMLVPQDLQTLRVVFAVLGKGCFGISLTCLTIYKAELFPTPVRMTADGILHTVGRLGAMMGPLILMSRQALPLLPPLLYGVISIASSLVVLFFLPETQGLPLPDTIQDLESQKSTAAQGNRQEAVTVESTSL

[2] = biological target: T1, human organic anion transporter 4 (hOAT4); test: inhibition of [3H]-estrone sulfate uptake in stable hOAT4-expressing COS-7 cells, Dixon plot (IC50 […]); assay type: cell-based

CC(C)(C)c1nc(-c2cccc(NS(=O)(=O)c3c(F)cccc3F)c2F)c(-c2ccnc(N)n2)s1 [Dab, dabrafenib mesylate]
Ki [1]: 4.26 µM

COc1cccc2c1C(=O)c1c(O)c3c(c(O)c1C2=O)C[C@@](O)(C(=O)CO)C[C@@H]3O[C@H]1C[C@H](N)[C@@H](O)[C@H](C)O1 [epirubicin hydrochloride]
Ki [2]: 3 µM
